Columns and labels:
HFB (human fibroblast) = assay: Survival rate of cells after freeze-preservation at −80° C. for 24 hours, trypan blue (Example 1); assay type: cell-based; details: concentration 50 mM (foregoing studies)
Description: 1. Cells used: Hela (human cervical cancer), OVCAR-3 (human ovarian cancer), HuH-7 (human liver cancer), HaCaT (human skin keratinocyte), HFB (human fibroblast) and NIH3T3 (mouse fibroblast). Saccharides D-allose and the like were added to culture medium, Cell Banker (commercially available preservative solution) and DMSO at concentrations of 25 mM and 50 mM. Monosaccharides such as D-glucose, D-fructose, D-mannose and D-galactose which are present in nature in large quantities and D-allose, D-psicose, D-altrose, allitol, D-talitol and L-sorbose as rare sugars were used. Further, trehalose as disaccharide was used. The cells were preserved for 24 hours by being frozen at −80° C. 1) Survival rate of cells: One day later, the cells were thawed, and the survival rate was estimated by trypan blue dying method.

MPO = assay: Renal ischemic reperfusion model, MPO as index of accumulation of leukocytes; assay type: in vivo, rat; details: 400 mg/kg intravenously 30 minutes before renal ischemia; peak after 6 hours of reperfusion (FIG. 13)
Description: Object: male rats with a body weight of 200˜250 g Experimental method: After anesthetization of a rat with nenbutal, a renal ischemic model is prepared. Renal ischemic model: After extraction of the right kidney, the left kidney blood vessel is clamped for 45 minutes. 400 mg/kg of the solution is intravenously administered to the D-allose group 30 minutes before the renal ischemia. A raw feed is administered to the control group. Estimation: Change with time of a CINC-1 protein amount and MPO as an index of accumulation of leukocytes after ischemic reperfusion

EGF mRNA = assay: Kidney preservation in UW solution at 4° C., EGF mRNA by northern blot; parameters: species or system rat; details: D-allose 5 mg/ml in UW solution, in 48 hours and 78 hours (FIG. 11)
Description: Object: male rats, 200 g to 280 g Preparations of experiment: A rat is fasted 12 hours before the experiment. After the rat is anesthetized by intraperitoneal administration of nenbutal, the stomach is shaved with an electric razor, cleaned with ether, and cut open. The abdominal aorta upper the renal artery is clamped. The UW solution is adapted to be perfused from the abdominal aorta under the renal artery. Grouping: Control group: UW solution only, D-allose group: D-allose is added to the UW solution at a concentration of 5 mg/ml. Experimental method: In the control group and the D-allose group, the kidney is withdrawn after perfusion of the UW solution in each group, put in the UW solution of each of the control group and the D-allose group, […] Estimation: Expression of detrimental factor ICAM-1 and regeneration factor EGF in mRNA was examined by northern blot.

[1] = system: NIH3T3, OVCAR-3, HaCaT and HFB cells; assay: Cell preservation with DMSO plus rare sugar, growth after thawing (Example 1); assay type: cell-based, human, mouse; details: DMSO decreased to 1%, sub-optimal condition (FIG. 4, FIG. 5)
Description: 1. Cells used: Hela (human cervical cancer), OVCAR-3 (human ovarian cancer), HuH-7 (human liver cancer), HaCaT (human skin keratinocyte), HFB (human fibroblast) and NIH3T3 (mouse fibroblast). Saccharides D-allose and the like were added to culture medium, Cell Banker (commercially available preservative solution) and DMSO at concentrations of 25 mM and 50 mM. Monosaccharides such as D-glucose, D-fructose, D-mannose and D-galactose which are present in nature in large quantities and D-allose, D-psicose, D-altrose, allitol, D-talitol and L-sorbose as rare sugars were used. Further, trehalose as disaccharide was used. The cells were preserved for 24 hours by being frozen at −80° C. 2) Cell growth: One day later, the cells were thawed, and 0.25˜2×10^4 cells/well were spread on 96-well plate with 0.1 mL medium. After a prescribed period of time, the cell growth was measured by MTT assay. 4) Since DMSO (dimethyl sulfoxide) is also commonly added to culture medium at a rate of 10% and used in freeze-preservation, the effect of rare sugar was examined in the system of DMSO. The difference in effect of rare sugar is hardly observed in a system using 10% DMSO, the effect of cell preservation was comparatively examined under a sub-optimal condition by decreasing the concentration of DMSO to 1%. NIH3T3, OVCAR-3, HaCaT and HFB cells and the like were used. […]

[2] = system: Hela, OVCAR-3, HaCaT, HFB and NIH3T3 cells; assay: Survival rate of cells after freeze-preservation at high sugar concentration, trypan blue (Example 2); assay type: cell-based, human, mouse
Description: 1. Cells used: Hela (human cervical cancer), OVCAR-3 (human ovarian cancer), HaCaT (human skin keratinocyte), HFB (human fibroblast) and NIH3T3 (mouse fibroblast). Saccharides D-allose and the like were added to culture medium, Cell Banker (commercially available preservative solution) and DMSO at concentrations of 0.2, 0.4, 0.6, 0.8 and 1M. Monosaccharides such as D-glucose, D-fructose, D-mannose and D-galactose which are present in nature in large quantities and D-allose, D-altrose, D-psicose, L-psicose, D-sorbose, L-sorbose, D-tagatose, L-tagatose and L-fructose as rare sugars were used. Further, trehalose as disaccharide was used. The cells frozen with D-allose were freeze-preserved at −80° C. and in liquid nitrogen for 24 hours, 1 week and 4 weeks. 1) Survival rate of cells: The cells were thawed, and the survival rate was estimated by a trypan blue dying method.

ICAM-1 mRNA = assay: Kidney preservation in UW solution at 4° C., ICAM-1 mRNA by northern blot; parameters: species or system rat; details: D-allose 5 mg/ml in UW solution, clearly observed after 12 hours and 24 hours (FIG. 10)
Description: Object: male rats, 200 g to 280 g Preparations of experiment: A rat is fasted 12 hours before the experiment. After the rat is anesthetized by intraperitoneal administration of nenbutal, the stomach is shaved with an electric razor, cleaned with ether, and cut open. The abdominal aorta upper the renal artery is clamped. The UW solution is adapted to be perfused from the abdominal aorta under the renal artery. Grouping: Control group: UW solution only, D-allose group: D-allose is added to the UW solution at a concentration of 5 mg/ml. Experimental method: In the control group and the D-allose group, the kidney is withdrawn after perfusion of the UW solution in each group, put in the UW solution of each of the control group and the D-allose group, and preserved at 4° C. in pre or for 12, 24, 48 or 72 hours. Estimation: Expression of detrimental factor ICAM-1 and regeneration factor EGF in mRNA was examined by northern blot.

## O=C[C@H](O)[C@H](O)[C@H](O)[C@H](O)CO [D-allose]
HFB (human fibroblast)
  improvement effect as preservative agent: no great improvement effect was obtained
MPO
  MPO as the index of accumulation of leukocytes: inhibited
EGF mRNA
  expression of EGF mRNA during kidney preservation: still maintained
[1]
  effect of preservation with DMSO: improved
[2]; 0, 0.2, 0.4, 0.6, 0.8 and 1M, comparison under way, tendency
  cell survival rate after thawing in comparison with other rare sugars: the highest
[2]; D-allose added to 10% DMSO and Cell Banker, compared with DMSO and Cell Banker
  survival rate of cells: the higher the concentration of D-allose, the lower the survival rate of cells
[2]; D-allose-containing freeze-preservative agent
  optimum preservation temperature: −80 °C
[2]; freeze-preservation extended by one month
  survival rate of cells with extended time of freeze-preservation: not changed so much
[2]; sugar-containing medium in comparison with medium alone (FIG. 7)
  number of cells survived (trypan blue dying): large
[2]; −80° C. versus liquid nitrogen
  survival rate by temperature of freeze-preservation: much higher
ICAM-1 mRNA
  expression of ICAM-1 mRNA during kidney preservation: reduced

— US9237744B2, “Preservative solution for cells, tissues and organs containing rare sugar and preservative method thereof” (NATIONAL UNIVERSITY CORPORATION KAGAWA UNIVERSITY, priority 2004, dated 2016)
